Source: patent US6936457B1 (Merck & Co., Inc., priority 1990, dated 2005)
“And” between values parts separate entries of the source, which are not always exact repeats. Identical values can stand only once. Like-named read-outs stand apart in the source and are kept apart here.

Assays:
PC12 = test: 86Rb ion-flux assay, PC12 positive control cells; format: cell-based
IMR32 = test: 86Rb ion-flux assay, IMR32 positive control cells; format: cell-based, human
[1] = biological target: T1, human neuronal nicotinic AChR α3 and β4 subunits (Homo sapiens, UniProt P30926+P32297); test: Two-electrode voltage clamp of Xenopus oocytes injected with α3 and β4 transcripts; format: cell-based
T1 construct: expressed in transfected cells; host or cells: Xenopus oocytes injected with in vitro transcripts

[2] = biological target: T2, human neuronal nicotinic AChR α3 subunit (Homo sapiens, UniProt P32297); test: Two-electrode voltage clamp of Xenopus oocytes injected with α3 transcript alone; format: cell-based
T2 construct: expressed in transfected cells; host or cells: Xenopus oocytes injected with in vitro transcript

[3] = biological target: T3, human neuronal nicotinic AChR β4 subunit (Homo sapiens, UniProt P30926); test: Two-electrode voltage clamp of Xenopus oocytes injected with β4 transcript alone; format: cell-based
T3 construct: expressed in transfected cells; host or cells: Xenopus oocytes injected with in vitro transcript (KEβ4.6/pGEM or pCMV-KEβ4)

human α3β2α5 nAChR = human α3β2α5 nAChR (Homo sapiens, UniProt P17787+P30532+P32297, D398N); format: cell-based
[4] = biological target: T1, human neuronal nicotinic AChR α3 and β4 subunits; format: cell-based
[5] = biological target: human neuronal nicotinic AChR α7 subunit (Homo sapiens, UniProt P36544); format: cell-based
[6] = biological target: human neuronal nicotinic AChR α3 and β2 subunits (Homo sapiens, UniProt P17787+P32297); format: cell-based
human α7 nAChR [7] = biological target: T4, human α7 nAChR (Homo sapiens, UniProt P36544); format: cell-based
human α7 nAChR [8] = biological target: T4, human α7 nAChR; format: binding
[9] = Rattus norvegicus, PC-12, PC12, agonists and antagonists, read-out: EC50
[10] = Homo sapiens, IMR-32, IMR32, agonists and antagonists, read-out: EC50

Sequence of human neuronal nicotinic AChR α3 and β2 subunits (P17787 26-502, one chain of several): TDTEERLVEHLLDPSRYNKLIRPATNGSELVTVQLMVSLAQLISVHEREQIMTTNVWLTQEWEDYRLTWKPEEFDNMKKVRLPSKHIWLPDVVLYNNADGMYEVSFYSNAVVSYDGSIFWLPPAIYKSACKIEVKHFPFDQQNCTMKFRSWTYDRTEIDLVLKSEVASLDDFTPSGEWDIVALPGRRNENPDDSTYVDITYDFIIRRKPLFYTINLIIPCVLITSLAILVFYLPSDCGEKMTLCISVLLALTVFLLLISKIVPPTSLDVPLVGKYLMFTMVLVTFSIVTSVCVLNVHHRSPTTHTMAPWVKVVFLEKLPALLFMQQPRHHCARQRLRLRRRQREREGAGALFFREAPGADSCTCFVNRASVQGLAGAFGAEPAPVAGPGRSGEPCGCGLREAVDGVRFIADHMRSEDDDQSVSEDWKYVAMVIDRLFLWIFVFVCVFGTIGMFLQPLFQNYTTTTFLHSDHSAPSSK
T4 sequence (P36544 23-502): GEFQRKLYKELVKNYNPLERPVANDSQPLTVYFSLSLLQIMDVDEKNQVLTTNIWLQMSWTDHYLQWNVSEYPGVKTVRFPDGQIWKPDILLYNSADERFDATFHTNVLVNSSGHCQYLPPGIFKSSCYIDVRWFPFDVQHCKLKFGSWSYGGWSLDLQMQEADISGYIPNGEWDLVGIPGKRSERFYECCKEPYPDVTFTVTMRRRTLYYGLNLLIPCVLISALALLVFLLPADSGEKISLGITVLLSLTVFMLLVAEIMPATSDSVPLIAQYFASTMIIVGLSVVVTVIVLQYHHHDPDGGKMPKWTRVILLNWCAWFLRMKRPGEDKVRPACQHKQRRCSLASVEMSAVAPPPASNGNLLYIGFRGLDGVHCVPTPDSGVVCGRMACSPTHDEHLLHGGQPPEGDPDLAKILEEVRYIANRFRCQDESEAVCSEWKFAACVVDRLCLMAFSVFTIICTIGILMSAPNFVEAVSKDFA
T3 sequence (P30926 22-498): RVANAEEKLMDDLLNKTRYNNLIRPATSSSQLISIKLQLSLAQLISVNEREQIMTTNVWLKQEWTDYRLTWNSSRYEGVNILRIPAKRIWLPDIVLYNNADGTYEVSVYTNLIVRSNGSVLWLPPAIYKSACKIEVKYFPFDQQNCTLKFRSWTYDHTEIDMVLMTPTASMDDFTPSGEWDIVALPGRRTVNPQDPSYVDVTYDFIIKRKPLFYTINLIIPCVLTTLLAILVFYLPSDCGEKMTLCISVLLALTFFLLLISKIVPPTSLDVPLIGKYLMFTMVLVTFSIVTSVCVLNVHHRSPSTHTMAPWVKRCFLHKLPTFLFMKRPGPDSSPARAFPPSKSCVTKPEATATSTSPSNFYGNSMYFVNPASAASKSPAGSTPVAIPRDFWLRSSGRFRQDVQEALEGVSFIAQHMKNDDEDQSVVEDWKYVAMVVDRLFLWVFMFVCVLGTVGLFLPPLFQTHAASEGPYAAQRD
Sequence of human α3β2α5 nAChR (P32297 32-505): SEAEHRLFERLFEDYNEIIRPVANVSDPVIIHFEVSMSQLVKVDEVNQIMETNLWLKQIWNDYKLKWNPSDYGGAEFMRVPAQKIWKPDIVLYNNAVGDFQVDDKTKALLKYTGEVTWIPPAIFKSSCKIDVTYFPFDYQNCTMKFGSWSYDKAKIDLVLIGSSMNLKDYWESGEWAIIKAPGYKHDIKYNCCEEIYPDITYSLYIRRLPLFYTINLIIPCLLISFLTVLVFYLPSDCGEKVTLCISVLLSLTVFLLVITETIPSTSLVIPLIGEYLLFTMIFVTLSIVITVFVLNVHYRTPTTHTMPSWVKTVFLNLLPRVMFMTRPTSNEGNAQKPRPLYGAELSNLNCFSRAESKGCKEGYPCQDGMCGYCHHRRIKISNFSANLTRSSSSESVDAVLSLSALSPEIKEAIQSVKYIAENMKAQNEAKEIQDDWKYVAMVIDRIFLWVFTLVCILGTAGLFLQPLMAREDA
Sequence of human α3β2α5 nAChR (P17787 26-502): as the sequence (P17787 26-502, one chain of several) above
Sequence of human neuronal nicotinic AChR α7 subunit (P36544 23-502): as the sequence (P36544 23-502) above

Compound: C[N+](C)(C)CCOC(N)=O.[Cl-] [CCh, carbamylcholine]
- Maximum response (PC12): 3.3 X^b
- EC50 (PC12; read-out: EC50): 35 µM
- Maximum response (IMR32): 7.6 X^c
- EC50 (IMR32; read-out: EC50): 230 µM

Compound: CN1[C@@H]2CC[C@H]1C[C@@H](OC(=O)C(CO)c1ccccc1)C2 (stereo partly shown) [atropine]
- EC50 (IMR32; Homo sapiens, IMR-32): 43 µM

Compound: O=c1cccc2n1C[C@@H]1CNC[C@H]2C1 [cytisine]
- Number of oocytes responding [1]: 3 of 4 and 5 of 5 and 6 of 6
- inward currents in response to agonist [1]: detectable inward currents
- relative potency of the agonists [1]: cytisine>ACh>nicotine
- Maximum response (PC12): 3.6 X^d
- EC50 (PC12; Rattus norvegicus, PC-12): 57 µM
- response of oocytes to application of agonist [2]: did not respond
- response of oocytes to application of agonist [3]: did not respond
- Maximum response (IMR32): 10 X^e
- EC50 (IMR32; Homo sapiens, IMR-32): 14 µM

Compound: COc1cc2c3cc1Oc1cc(ccc1O)C[C@@H]1c4c(cc(OC)c(O)c4Oc4ccc(cc4)C[C@@H]3N(C)CC2)CC[N+]1(C)C [d-tubocurarine]
- nicotine-stimulated increase in fluorescence in presence of antagonist (human α3β2α5 nAChR): not observed
- block of the responses to ACh and nicotine [1]: reproducibly blocked
- blockage of the response to ACh [1]: complete blockage
- reversibility of the inhibition [1]: appeared to be reversible
- nicotine-stimulated increase in fluorescence in presence of antagonist [4]: not observed
- block of the response to ACh [5]: blocked
- EC50 (PC12; read-out: EC50): 0.81 µM
- EC50 (IMR32; read-out: EC50): 2.5 µM
- block of the current response to ACh [6]: blocked

Compound: Clc1ccc(C2CC3CCC2N3)cn1 (stereo not shown) [epibatidine]
- response of individual cells (human α7 nAChR [7]): homogenous manner

Compound: C[N+](C)(C)CCCCCC[N+](C)(C)C [hexamethonium]
- EC50 (IMR32; Homo sapiens, IMR-32): 22 µM

Compound: CNC1(C)C2CCC(C2)C1(C)C (stereo not shown) [mecamylamine]
- block of the responses to ACh, nicotine and cytisine [1]: at least partially blocked
- EC50 (PC12; [9]): 0.42 µM
- EC50 (IMR32; [10]): 0.11 µM

Compound: CN1CCCC1c1cccnc1 (stereo not shown) [nicotine]
- fluorescence (intracellular calcium) after addition of agonist (human α3β2α5 nAChR): increased dramatically
- Number of oocytes responding [1]: 4 of 5 and 3 of 4 and 5 of 5 and 6 of 6
- inward currents in response to agonist [1]: detectable inward currents
- fluorescence (intracellular calcium) after addition of agonist [4]: increased dramatically
- Maximum response (PC12; PC12, at 200 μM nicotine, 300 μM CCh, 1 mM cytisine (footnotes)): 2.1 X^a
- EC50 (PC12; [9]): 52 µM
- Number of oocytes responding [2]: 0 of 8
- response of oocytes to application of agonist [2]: did not respond
- Number of oocytes responding [3]: 0 of 9
- response of oocytes to application of agonist [3]: did not respond
- EC50 (IMR32; [10]): 18 µM
- Maximum response (IMR32; IMR32, at 200 μM nicotine, 3 mM CCh, 100 μM cytisine (footnotes)): 7.7 X^a
- Number of oocytes responding [6]: 2 of 9 and 0 of 9

Compound: α-bungarotoxin
- [3H]-MLA binding displaced (human α7 nAChR [8]): approximately 65%
- IC50 (human α7 nAChR [8]; read-out: IC50, displacement of [3H]-MLA binding): 0.003 µM
